Like-named read-outs stand apart in the source and are kept apart here.
Tests used:
[1] = target: mushroom tyrosinase (Agaricus bisporus, UniProt C7FF04); assay: Mushroom tyrosinase inhibitory assay (o-diphenolase activity, L-DOPA as substrate); format: biochemical; conditions: for inhibition at 200 µM: read-out: Mushroom Tyrosinase Inhibition % Inhibition (at 200 μM); for inhibition at 300 µM: read-out: Mushroom Tyrosinase Inhibition % Inhibition (at 300 μM); for behaviour as substrate of mushroom tyrosinase (in words): pre-incubation with enzyme in absence of L-DOPA, coloured product at 475 nm; for inhibitory activity on mushroom tyrosinase (in words): o-diphenolase;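 for all read-outs here: enzyme and test sample preincubated 10 min at 25 °C in pH 6.8 phosphate buffer, 50% DMSO vehicle as control, enzyme-free mixture as blank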
[2] = target: T1, murine tyrosinase (Mus musculus, UniProt P11344); assay: Murine tyrosinase inhibitory assay (o-diphenolase activity, crude enzyme from B16-F10 melanoma cells); format: biochemical;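 note: crude tyrosinase taken from lysed, dialyzed B16-F10 cell extract, with the inhibition reaction incubated for 2 h at 37 °C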
T1 construct: The cells were lysed by vortex and incubated at 4 °C for 1 h to solubilize the tyrosinase enzyme; endogenous in cells; host or cells: B16-F10 melanoma cells (Triton X-100 lysate, dialyzed)
T1 sequence (P11344 19-533): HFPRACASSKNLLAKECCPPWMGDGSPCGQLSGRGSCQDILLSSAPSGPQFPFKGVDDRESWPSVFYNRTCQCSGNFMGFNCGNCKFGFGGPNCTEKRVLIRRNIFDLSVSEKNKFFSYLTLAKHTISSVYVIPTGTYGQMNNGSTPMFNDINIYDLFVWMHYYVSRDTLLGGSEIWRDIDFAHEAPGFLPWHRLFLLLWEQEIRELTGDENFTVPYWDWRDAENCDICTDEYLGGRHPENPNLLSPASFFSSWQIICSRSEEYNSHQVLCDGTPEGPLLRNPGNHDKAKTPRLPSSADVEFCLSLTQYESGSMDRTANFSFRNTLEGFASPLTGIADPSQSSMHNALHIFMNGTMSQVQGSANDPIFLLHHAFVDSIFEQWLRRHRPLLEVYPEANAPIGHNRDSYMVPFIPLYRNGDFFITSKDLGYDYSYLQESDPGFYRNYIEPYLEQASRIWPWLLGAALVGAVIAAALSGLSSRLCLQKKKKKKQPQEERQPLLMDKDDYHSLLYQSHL

[3] = tested on: B16-F10 melanoma cells; assay: Total melanin content assay; format: cell-based, Mus musculus (mouse); conditions: for activity at 15 µM / activity at 30 µM: read-out: % Melanin Content
Description: Mus musculus (mouse) melanoma cell line, B16-F10 (ATCC® Number: CRL-6475™, Manassas, VA, USA), was cultured in complete Dulbecco′s Modified Eagle′s Medium (DMEM, phenol red-free medium) containing 10% fetal bovine serum, 25 mM glucose, 4 mM L-glutamine, 1 mM sodium pyruvate, 10 μg/mL penicillin, and 10 μg/mL streptomycin, at 37 °C, with 5% carbon dioxide (CO2) in a humidified atmosphere.
The total melanin content, produced both extracellularly and intracellularly, was determined as follows: B16-F10 cells were seeded onto a 24-well plate at a concentration of 50,000 cells/0.5 mL/well and were incubated for 24 h, followed by treatment with either the test compounds or the control (0.5% DMSO), and then incubated for 72 h. For extraction, the total produced melanin and 0.5 mL of 2 N NaOH containing 20% DMSO were added directly to the cell culture medium, mixed by pipetting and then incubated at room temperature for 1 h. The lysed cell extract was centrifuged at 13,000× g for 5 min. Finally, the supernatant was transferred to a 96-well plate and the relative melanin content was detected at 405 nm using a micro plate reader. Kojic acid and oxyresveratrol were used as positive controls.

[4] = Cell viability assay (PrestoBlue resazurin); format: cell-based, Mus musculus (mouse); conditions: mouse;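 note: mouse B16-F10 melanoma cells exposed to test samples for 72 h, with viability read as fluorescence of resorufin formed when living cells reduce PrestoBlue resazurin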
[5] = tested on: human melanoma cells (MMV II); design: method as in PMID 25248426; conditions: cited from earlier work
[6] = 200 μM, L-DOPA substrate, read-out: Murine Tyrosinase Inhibition, % (at 200 μM)
[7] = Mus musculus, B16-F10, 15 μM, 72 h, relative to control
[8] = Mus musculus, B16-F10, 30 μM, 72 h, relative to control
[9] = B16-F10 melanoma cells, 15 μM, 72 h, relative to control, read-out: % Cell Viability
[10] = B16-F10 melanoma cells, 30 μM, 72 h, relative to control, read-out: % Cell Viability
[11] = 200 μM, L-DOPA substrate, read-out: Murine Tyrosinase Inhibition, % (at 200 μM), symbol

Sequence of mushroom tyrosinase (G1K3P4 entry or part of it): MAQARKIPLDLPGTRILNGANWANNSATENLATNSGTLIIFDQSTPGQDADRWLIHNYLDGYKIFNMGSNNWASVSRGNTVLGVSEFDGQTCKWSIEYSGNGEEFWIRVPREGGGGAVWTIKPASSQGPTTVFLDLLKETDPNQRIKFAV
Sequence of mushroom tyrosinase (C7FF04 2-392): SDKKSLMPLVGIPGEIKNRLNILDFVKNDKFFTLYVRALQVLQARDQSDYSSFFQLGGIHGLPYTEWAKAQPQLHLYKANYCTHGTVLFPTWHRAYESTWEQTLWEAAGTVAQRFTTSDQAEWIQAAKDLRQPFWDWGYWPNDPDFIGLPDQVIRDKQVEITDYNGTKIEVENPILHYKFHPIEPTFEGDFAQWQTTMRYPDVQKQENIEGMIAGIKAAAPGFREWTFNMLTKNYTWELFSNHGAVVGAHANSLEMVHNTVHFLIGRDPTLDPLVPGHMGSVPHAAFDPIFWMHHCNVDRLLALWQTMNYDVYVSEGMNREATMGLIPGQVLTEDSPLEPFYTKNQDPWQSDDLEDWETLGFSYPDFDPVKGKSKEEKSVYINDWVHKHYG

Compound	inhibition at 200 µM [2, 11]	activity at 15 µM [3, 7]	activity at 30 µM [3, 8]	viability at 72 h, 15 µM [4, 9]	viability at 72 h, 30 µM [4, 10]	other results
COc1ccc([C@@H]2COc3cc(O)ccc3C2)c(O)c1 [Compound 19, (3R)-Vestitol]		186.1 ± 1.6%	232 ± 9.3%	142 ± 3%	120 ± 4.1%	inhibition at 200 µM ([1]; 200 μM, L-DOPA substrate): 35.6 ± 2.2%; inhibition at 200 µM [2, 6]: 12.4 ± 3.3%
O=c1c(O)c(-c2ccc(O)c(O)c2)oc2cc(O)ccc12 [fisetin]						effect on melanogenesis (in words) [5]: melanogenesis-promoting actions
Oc1cc(O)cc(/C=C/c2ccc(O)cc2O)c1 [Oxyresveratrol, reference compound]		24.3 ± 1.1%	28.4 ± 1.7%			inhibition at 200 µM [1]: 98.4 ± 1.1%; viability at 72 h, 15 µM ([4]; % Cell Viability): 117 ± 2.2%; viability at 72 h, 30 µM ([4]; % Cell Viability): 118 ± 5.1%
COc1ccc([C@@H]2COc3cc(O)ccc3C2=O)cc1O [Compound 10, (3R)-7,3′-Dihydroxy-4′-methoxy-isoflavanone]	< 0%	95.1 ± 3%	95.2 ± 2.7%	94.9 ± 3.9%	96.5 ± 3.9%	inhibition at 200 µM [1]: 52.1 ± 0.4%
O=c1cc(CO)occ1O [Kojic acid, reference compound]		68.9 ± 5.2%	74.2 ± 5.8%	98.9 ± 4.7%	99.6 ± 2.3%	
O=C1C[C@@H](c2ccc(O)cc2)Oc2cc(O)cc(O)c21 [Compound 25, (2S)-Naringenin]	< 0%	132 ± 14.5%	152 ± 3.8%	94.3 ± 2%	98.1 ± 0.5%	behaviour as substrate of mushroom tyrosinase (in words) [1]: chromogenic substrate analogs; effect on melanin content (in words, Figure 1) ([3]; 30 μM): increased the melanin content
COc1cc(-c2coc3cc(O)cc(O)c3c2=O)ccc1O [Compound 6, 3′-O-Methylorobol]	< 0%	170 ± 10.5%	216 ± 15.7%	107 ± 6.2%	102 ± 2.7%	inhibition at 200 µM ([1]; 200 μM, L-DOPA substrate): 14.3 ± 1.1%; inhibitory activity on mushroom tyrosinase (in words) ([1]; L-DOPA substrate): did not show inhibitory activity
COc1c(O)cc2occ(-c3ccc(O)cc3)c(=O)c2c1O [Compound 8, Tectorigenin]		128 ± 2.8%	152 ± 4.7%	130 ± 3.4%	119 ± 1.3%	behaviour as substrate of mushroom tyrosinase (in words) [1]: chromogenic substrate analogs; inhibition at 200 µM [2, 6]: 10.2 ± 2.9%
COc1cc(O)c2c(=O)c(-c3ccc(O)cc3O)coc2c1 [Compound 9, Cajanin]						inhibition at 200 µM [1]: 65 ± 1.6%; inhibition at 200 µM ([2]; read-out: Murine Tyrosinase Inhibition, % (at 200 μM)): 9.2 ± 1.5%; effect on melanin content (in words, Figure 1) ([3]; 30 μM): inhibitory effect of melanogenesis; activity at 15 µM ([3]; Mus musculus, B16-F10, 72 h): 65.8 ± 7.5%; activity at 30 µM ([3]; Mus musculus, B16-F10, 72 h): 61.6 ± 8.9%; inhibition at 15 µM ([3]; Mus musculus, B16-F10, read-out: inhibition of melanogenesis): 34%; viability at 72 h, 15 µM ([4]; 15 μM, 72 h, relative to control, read-out: % Cell Viability): 102 ± 6.6%; viability at 72 h, 30 µM ([4]; 30 μM, 72 h, relative to control, read-out: % Cell Viability): 107 ± 3.3%
COc1ccc([C@H]2COc3c(ccc(O)c3O)C2)c(OC)c1O [Compound 23, (3S)-8-Demethylduartin]	< 0%	87.8 ± 2%	72.7 ± 4.3%	93.5 ± 3%	98.3 ± 5.4%	behaviour as substrate of mushroom tyrosinase (in words) [1]: chromogenic substrate analog
COc1ccc(C2COc3cc(O)ccc3C2=O)c(O)c1OC (stereo not shown) [Compound 13, Dalparvin B]		102 ± 2.7%	99.1 ± 2.3%	82.3 ± 5.4%	74.1 ± 6.4%	inhibition at 500 µM ([1]; L-DOPA substrate): 4%; inhibition at 200 µM [2, 6]: 9.8 ± 2.8%
COc1ccc([C@@H]2COc3cc(O)ccc3C2)c(OC)c1O [Compound 20, (3R)(+)-Mucronulatol]		179 ± 15.9%	264 ± 8.2%	104 ± 6.9%	102 ± 2.7%	inhibition at 200 µM ([1]; 200 μM, L-DOPA substrate): 48.3 ± 1.6%; inhibition at 200 µM [2, 6]: 12.8 ± 2.1%
COc1ccc(-c2coc3cc(O)cc(O)c3c2=O)cc1 [Compound 3, Biochanin A]	< 0%	165 ± 5.9%	168 ± 5.1%	103 ± 4.5%	102 ± 4.8%	inhibition at 200 µM ([1]; 200 μM, L-DOPA substrate): 9.2 ± 0.4%; inhibitory activity on mushroom tyrosinase (in words) ([1]; L-DOPA substrate): did not show inhibitory activity
O=C1C[C@@H](c2ccc(O)cc2)Oc2cc(O)ccc21 [Compound 24, (2S)-Liquiritigenin]		103 ± 5.5%	124 ± 2%	98.9 ± 10.7%	100 ± 3.5%	inhibition at 200 µM [1]: 52.1 ± 1.4%; inhibition at 200 µM [2, 6]: 13.2 ± 2.7%
COc1ccc(-c2coc3cc(O)cc(O)c3c2=O)c(OC)c1O [Compound 7, Khrinone C]	< 0%	107.6 ± 0.8%	154 ± 9.9%	93.3 ± 2%	93.4 ± 2%	inhibition at 300 µM ([1]; L-DOPA substrate): 2%; inhibitory activity on mushroom tyrosinase (in words) ([1]; L-DOPA substrate): did not show inhibitory activity
COc1ccc(-c2coc3cc(O)ccc3c2=O)cc1 [Compound 1, Formononetin]	< 0%	134 ± 2.7%	155 ± 15.4%	96 ± 3.3%	92.8 ± 9.4%	inhibition at 300 µM ([1]; L-DOPA substrate): 10%; inhibitory activity on mushroom tyrosinase (in words) ([1]; L-DOPA substrate): did not show inhibitory activity

Continued, in another order:

inhibition at 200 µM [2, 11]	Compound	activity at 15 µM [3, 7]	activity at 30 µM [3, 8]	viability at 72 h, 15 µM [4, 9]	viability at 72 h, 30 µM [4, 10]	other results
< 0%	COc1cc(OC)c(C2COc3cc(O)ccc3C2=O)cc1O (stereo not shown) [Compound 12, Dalparvin]	134 ± 9.7%	200 ± 12.1%	117 ± 8.9%	99.7 ± 6.7%	inhibition at 200 µM ([1]; 200 μM, L-DOPA substrate): 31.6 ± 0.5%
< 0%	COc1ccc(C2COc3cc(O)ccc3C2=O)c(OC)c1OC [Compound 15, (3R,S)-3′-O-Methylviolanone]	143 ± 8.4%	157 ± 11.5%	74.2 ± 7.8%	72.9 ± 6.2%	inhibition at 300 µM ([1]; L-DOPA substrate): 0%
< 0%	COc1cc2c(cc1C1COc3cc(O)ccc3C1=O)OCO2 (stereo not shown) [Compound 11, Onogenin]	134 ± 4.6%	170 ± 15.4%	100 ± 5%	92 ± 2%	inhibition at 300 µM ([1]; L-DOPA substrate): 0%
< 0%	COc1ccc(C2COc3cc(O)cc(O)c3C2=O)cc1O [Compound 16, (3R,S)-Kenusanone G]	133 ± 5.1%	158 ± 13.5%	124 ± 1.7%	102 ± 2.8%	inhibition at 500 µM ([1]; L-DOPA substrate): 0%
< 0%	COc1cc(OC)c(C2COc3cc(O)cc(O)c3C2=O)cc1O (stereo not shown) [Compound 18, Dalparvin A]	132 ± 4.4%	184 ± 10.6%	105 ± 4.8%	100 ± 7.1%	inhibition at 500 µM ([1]; L-DOPA substrate): 0%
< 0%	COc1ccc([C@H]2COc3cc(O)cc(O)c3C2=O)c(OC)c1O [Compound 17, (3S)-Secundiflorol H]	118 ± 17.7%	146 ± 6.1%	109 ± 6.6%	103 ± 4.1%	inhibition at 200 µM ([1]; 200 μM, L-DOPA substrate): 44 ± 3.7%
< 0%	COc1ccc(C2COc3c(ccc(O)c3OC)C2)c(OC)c1O (stereo not shown) [Compound 22, Duartin]	301.1 ± 2.3%	326.8 ± 2.1%	140 ± 7.5%	94.4 ± 2.8%	inhibition at 500 µM ([1]; L-DOPA substrate): 0%; increase in melanin content with respect to the control [3]: three-fold increase; effect on melanin content (in words, Figure 1) ([3]; 30 μM): increased the melanin content

— publication PMC6100075, “Correlation between the Potency of Flavonoids on Mushroom Tyrosinase Inhibitory Activity and Melanin Synthesis in Melanocytes” (Molecules : A Journal of Synthetic Chemistry and Natural …, 2018)
